How the values were obtained:
Assay type in all cases: cell-based, mouse
activated CD4+ T cells [1] = experiment: Effect of signaling inhibitors on TLR ligand-mediated survival; conditions: for effect on poly(I:C)- or CpG DNA-enhanced activated CD4+ T cell survival: dose dependent (FIG. 4A)
Procedure: TLR ligands used in all experiments were dissolved in PBS except for PGN, which was solubilized in PBS with 0.02% ethanol. SB203580, U0126, NEMO-binding domain peptide (NBD), and NBD-C were all dissolved in DMSO and purchased from Calbiochem (La Jolla, Calif.).
Therefore, the next set of experiments were designed to assess whether MAPK p38 or ERK 1/2 activation is necessary for TLR ligand-mediated survival in activated CD4^+ T cells. The ERK1/2 activation inhibitor U0126 or the MAPK p38 inhibitor SB203580 was added to TLR ligand-treated activated CD4^+ T cells and viability was assessed.

activated CD4+ T cells [2] = experiment: Survival of activated CD4+ T cells treated with TLR ligands (7-AAD/annexin exclusion)
Procedure: All CD4^+ T cell activation was conducted in complete culture medium composed of RPMI 1640 (Life Technologies, Grand Island, N.Y.), 1.5 μM 2-ME (Sigma-Aldrich, St. Louis, Mo.), 50 μg/ml gentamicin (Life Technologies), and 10% FCS (Mediatech, Washington, D.C.) at 37° C. in 5% CO2. Purified CD4^+ T cells from either BALB/c, MyD88^−/−, or MyD88^+/+ wild-type control littermates were activated on 24-well plates (Costar, Cambridge, Mass.) coated with 1.0 μg/ml CD3ε monoclonal antibody (2C11; BD Biosciences) and 1.0 μg/ml CD28 monoclonal antibody (37.51; BD Biosciences) for 16 hours. In experiments with DO11.10 mice, 1 μg/ml of pOVA, a peptide derived from chicken albumin amino acid residues […] was added to 2×10^6/ml erythrocyte-depleted splenocyte and lymph node cell pools for 16 hours. Following pOVA-induced activation, CD4^+ T cell APC complexes were disrupted with 5 mM EDTA/PBS for 10 minutes at 25° C., washed twice in PBS, and purified with magnetic beads using the MACS CD4^+ T cell isolation kit as described elsewhere herein. Purity of activated DO11.10 CD4^+ T cells exceeded 96%. As described elsewhere herein, the remainder of the contaminants by FACS analysis were CD8^+ T cells, with APCs at <0.1% by RT-PCR.
Following activation, purified CD4^+ T cells were washed twice in PBS and replated in culture medium at 10^6/ml. Cultures were left untreated or treated with either TLR ligands and/or inhibitors for indicated times and concentrations. Following incubation, CD4^+ T cells were washed twice in PBS/2% FBS and stained with CD4-allophycocyanin monoclonal antibody and 7-aminoactinomycin D (7-AAD; BD PharMingen) or annexin (BD PharMingen) and survival was assessed by exclusion of either of these two stains. For absolute live cell counts 50,000 CD45.1^+ splenocytes labeled with anti-CD45.1-PE monoclonal antibody (A20; BD PharMingen) were also added to stained CD4^+ T cell sample FACS tubes just before FACS analysis. Live CD4^+ T cell counts were calculated by taking the ratio of the number of CD4^+CD45.1^−7-ADD^− events collected to the number CD45.1^+ events collected and multiplying by 50,000. Proliferation was measured by CFSE dye dilution as previously described (Wells et al., 1997 J. Clin. Invest. 100:3173).
TLR ligands directly promote the survival of several cell types including neutrophils, DC, and B cells (Lundqvist et al., 2002, Cancer Immunol. Immunother. 51:139; Sabroe et al., 2003, J. Immunol. 170:5268; Grillot et al., 1996, J. Exp. Med. 183:381; Grillot et al., 1996, J. Exp. Med. 183:381). Since it was observed that activated CD4^+ T cells also express TLRs and signal in response to TLR ligands, the next set of experiments were designed to assess whether TLR ligands could directly enhance survival of these cells. DO11.10 CD4^+ T cells, that encode a transgenic TCR specific for a peptide derived from chicken OVA (pOVA), were activated with pOVA-pulsed APCs for 16 hours ex vivo, purified by magnetic beads to remove all non-CD4^+ T cells, and replated in unsupplemented culture medium in the absence or presence of TLR ligands. Survival was then assessed 72 hours following activation (FIG. 3A). Poly(I:C) or CpG DNA induced increases of activated CD4^+ T cell survival from 38% to 71 and 73%, respectively.

[3] = test system: Foxp3+GFP+ and Foxp3-GFP- T cells; experiment: Foxp3 expression (GFP reporter) and IL-6 production in Foxp3+ and Foxp3- T cells under stimulation; conditions: stimulation with anti-CD3 and anti-CD28 antibodies and TGF-b, with additions (FIG. 22)
Procedure: In order to study the effect of stimulation conditions on Foxp3 expression, T cells were from mice having a reporter construct introduced into the FOXP3 locus (Betteli et al., 2006, Nature 441:235-238) by sorting cells based on the GFP-reporter construct. The reporter construct expresses both Fox3p and the fluorescent protein GFP. T cells that are Foxp3^− (i.e. GFP^−) and T cells that are Foxp3^+ (i.e. GFP^+) were isolated (FIG. 21A). Foxp3 expression was then assessed under different stimulation conditions, […]

Compound | effect on poly(I:C)- or CpG DNA-enhanced activated CD4+ T cell survival (activated CD4+ T cells [1]) | Foxp3 expression in Foxp3-GFP- cells (non-regulatory T cells) [3] | further results
C[S+]([O-])c1ccc(-c2nc(-c3ccncc3)c(-c3ccc(F)cc3)[nH]2)cc1 (stereo not shown) [SB203580] | neither U0126 or SB203580 treatment decreased |  | 
N#CC(=C(/N)Sc1ccccc1N)/C(C#N)=C(\N)Sc1ccccc1N [U0126] | neither U0126 or SB203580 treatment decreased |  | overall survival rates of TLR-treated activated CD4+ T cells (activated CD4+ T cells [1]; concentration of 10 μM): small increase
IFN-α |  |  | activated CD4+ T cell survival (activated CD4+ T cells [2]; 72 hours following activation, DO11.10 CD4+ T cells activated with pOVA-pulsed APCs, purified, untreated 38% (FIG. 3A)): 67%
IL-6: cytokine added to the stimulation conditions |  | blocked the induction of Foxp3 | 
TGF-b |  | promoted Foxp3 expression | 
poly(C) |  |  | effect on activated CD4+ T cell survival (dose response) (activated CD4+ T cells [2]; FIG. 3B, purified activated CD4+ T cells): no significant effect

From patent US20090220528A1, “Stimulation of Toll-Like Receptors on T Cells” (THE TRUSTEES OF THE UNIVERISTY OF PENNSYLVANIA CNETER FOR …, priority 2005, published 2009)
